Patent US11878063B2, “Engineered ligands and uses thereof” (Children's Medical Center Corporation, priority 2019, dated 2024)
Square brackets hold non-standard residues; d marks the D form. Ends that are not written are not given here. Peptide text beside a SMILES is read from it. hArg = N=C(N)NCCCC[C@H](N)C(=O)O; Aib = CC(C)(N)C(=O)O

What was measured:
[1] = target: T1, PTHR2 (Homo sapiens, UniProt P49190); experiment: cAMP induction in HEK293 cells stably expressing human PTHR2; type: cell-based
T1 construct: expressed in transfected cells
T1 sequence (P49190 25-550): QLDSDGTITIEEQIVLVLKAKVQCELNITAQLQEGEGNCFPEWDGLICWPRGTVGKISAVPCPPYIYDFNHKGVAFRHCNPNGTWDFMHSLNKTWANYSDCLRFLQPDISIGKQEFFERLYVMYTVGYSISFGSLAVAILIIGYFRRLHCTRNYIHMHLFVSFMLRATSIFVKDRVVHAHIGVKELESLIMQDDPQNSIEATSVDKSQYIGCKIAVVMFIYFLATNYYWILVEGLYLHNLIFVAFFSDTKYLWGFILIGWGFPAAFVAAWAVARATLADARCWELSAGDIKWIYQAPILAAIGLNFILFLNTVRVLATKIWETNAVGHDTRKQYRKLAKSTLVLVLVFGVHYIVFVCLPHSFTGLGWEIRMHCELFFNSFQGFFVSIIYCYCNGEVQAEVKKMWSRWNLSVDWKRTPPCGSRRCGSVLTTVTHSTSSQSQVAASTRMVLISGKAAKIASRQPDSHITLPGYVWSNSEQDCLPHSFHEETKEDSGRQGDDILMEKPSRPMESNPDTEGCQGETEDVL
Procedure: (§1) Measurement of cAMP response. These assays were performed as previously described^27. […] Confluent monolayers of cells were pre-incubated with CO2 independent medium containing D-luciferin (0.5 mM) at 37° C. until a stable baseline level of luminescence was established (20 min). Varying concentrations of ligands were then added, and the time course of luminescence response was recorded using BioTek plate reader.
(§2) Data calculations. Data were processed using Microsoft Excel and GraphPad Prism 6. Data from cAMP dose-response assays were analyzed using a sigmoidal dose-response model with variable slope. Data sets were statistically compared by using Student's t test (two-tailed) assuming unequal variances for the two sets.

[2] = target: T2, PTHR16E (Homo sapiens, UniProt Q03431, A83I/D81R/G76A/K80A/K82Q/P78E/R79L/S71Q/S73D/S75E/T74Q); experiment: cAMP induction in HEK293 cells stably expressing PTHR16E (6E/Ubc6e epitope tag in exon 2 segment); type: cell-based
T2 construct: expressed in transfected cells
T2 sequence (Q03431 27-593 S71Q/S73D/T74Q/S75E/G76A/P78E/R79L/K80A/D81R/K82Q/A83I): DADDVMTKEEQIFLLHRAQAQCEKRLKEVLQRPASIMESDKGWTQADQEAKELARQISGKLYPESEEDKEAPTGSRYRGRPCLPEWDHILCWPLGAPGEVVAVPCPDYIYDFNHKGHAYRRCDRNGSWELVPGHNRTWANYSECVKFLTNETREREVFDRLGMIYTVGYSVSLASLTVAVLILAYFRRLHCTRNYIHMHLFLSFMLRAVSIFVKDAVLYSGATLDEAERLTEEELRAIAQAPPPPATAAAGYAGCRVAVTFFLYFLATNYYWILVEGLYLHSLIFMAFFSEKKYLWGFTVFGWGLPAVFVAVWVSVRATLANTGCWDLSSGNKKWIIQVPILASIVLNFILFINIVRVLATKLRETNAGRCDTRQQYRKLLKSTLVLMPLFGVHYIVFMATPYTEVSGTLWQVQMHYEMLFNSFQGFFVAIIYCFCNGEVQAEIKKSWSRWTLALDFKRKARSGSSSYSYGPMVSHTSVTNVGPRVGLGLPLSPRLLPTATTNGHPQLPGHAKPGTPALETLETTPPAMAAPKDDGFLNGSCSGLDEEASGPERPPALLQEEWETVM
Procedure: (§3) Measurement of cAMP response. These assays were performed as previously described^27. Briefly, HEK-293-derived cell lines that stably express the Glosensor cAMP reporter (Promega Corp.)^30 and PTHR1, a PTHR1 variant, or PTHR2 were seeded into white sided 96 well plates (50,000 cells/well) and grown to confluency. Confluent monolayers of cells were pre-incubated with CO2 independent medium containing D-luciferin (0.5 mM) at 37° C. until a stable baseline level of luminescence was established (20 min). Varying concentrations of ligands were then added, and the time course of luminescence response was recorded using BioTek plate reader.
as §2
(§4) The portion of PTHR1 encoded by exon 2 is not resolved in structural studies (FIG. 12—Panel d)^13, 14, 17, is not important for ligand binding^18, and in past work has been targeted as a site for receptor modification^18, 19. A construct was generated that encodes a PTHR1 variant in which a 14-residue fragment from exon 2 was replaced with a 14-mer epitope tag from the intracellular protein UBC6e (PTHR16E, FIG. 12—Panel d)^20. A receptor construct in which a pH-sensitive green fluorescent protein variant (GFP) was inserted into the portion of the receptor encoded by exon 2 (PTHR1GFP in FIGS. 17A to 17C)^19. Another version of PTHR1 in which yellow fluorescent protein (YFP) replaces the entire extracellular domain (PTHR1YFPΔECD, FIG. 12—Panel e)^21, was also used.

[3] = target: T3, human PTHR1 (Homo sapiens, UniProt Q03431); experiment: cAMP induction (cAMP-responsive luciferase) in HEK293 cells stably expressing human PTHR1; type: cell-based
T3 construct: expressed in transfected cells
T3 sequence (Q03431 27-593): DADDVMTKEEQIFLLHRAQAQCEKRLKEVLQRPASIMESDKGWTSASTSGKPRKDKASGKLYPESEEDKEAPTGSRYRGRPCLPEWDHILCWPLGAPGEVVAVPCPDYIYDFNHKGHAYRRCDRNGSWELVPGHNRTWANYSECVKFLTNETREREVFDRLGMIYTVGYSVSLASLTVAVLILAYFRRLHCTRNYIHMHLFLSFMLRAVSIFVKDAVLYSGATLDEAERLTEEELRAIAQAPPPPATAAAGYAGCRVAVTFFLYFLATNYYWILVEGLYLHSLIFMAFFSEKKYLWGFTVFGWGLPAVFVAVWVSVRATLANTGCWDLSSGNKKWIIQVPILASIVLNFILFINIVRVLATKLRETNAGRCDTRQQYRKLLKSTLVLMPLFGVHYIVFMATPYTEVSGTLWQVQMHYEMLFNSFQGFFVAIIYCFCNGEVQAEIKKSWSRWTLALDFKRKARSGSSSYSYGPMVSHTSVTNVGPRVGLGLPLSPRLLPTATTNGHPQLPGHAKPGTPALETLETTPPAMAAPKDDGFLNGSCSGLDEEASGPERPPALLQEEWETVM
Procedure: as §1, §2

[4] = system: PTHR1GFP; experiment: cAMP induction in HEK293 cells stably expressing PTHR1GFP; type: cell-based, human
Procedure: The GFP-PTHR1 fusion was stably expressed in cells that respond to receptor engagement by activation of a cAMP-sensitive version of luciferase. Exposure of these transfectants to PTH(1-11) yielded the expected dose-response curve with half maximal stimulation at ˜200 nM.
as §3, with “reader. The maximal luminescence response (observed 12-16 min after ligand addition) was used to construct dose-response data sets (Table 4, FIGS. 22A to 22E).” for “reader.”
as §2
as §4, with “While there is no structural information for any VHH bound to PTHR1, a mode of interaction was envisioned between the receptor and VHH-PTH conjugates like that depicted in FIG. 12—Panel c. The” for “The”

[5] = system: PTHR1YFPΔECD; experiment: cAMP induction in HEK293 cells stably expressing PTHR1YFPΔECD (YFP replaces extracellular domain); type: cell-based, human
Procedure: as §3, §2, §4

[6] = system: Mice (CD1 female); experiment: Calcemic response: blood ionized calcium in mice after subcutaneous injection; type: in vivo, mouse; conditions: 35 nmol/kg subcutaneous, n=4
Procedure: Animal experiments and measurement of in vivo response. Mice (CD1 female, age 11 weeks) were treated in accordance with the ethical guidelines adopted by Massachusetts General Hospital. […] Peptides and conjugates were administered at doses that allowed for differentiation between compounds with differing levels of in vivo activity^27. Statistical analyses were performed assuming Gaussian distribution of data. Mice (n=4 per compound) were injected subcutaneously with vehicle (10 mM citric acid/150 mM NaCl/0.05% Tween-80, pH 5.0) or vehicle containing PTH or conjugate at a dose of 35 nmol/kg body weight. […] Blood was withdrawn just before injection (t=0) or at times thereafter. Tail vein blood was collected and immediately analyzed. Blood Ca^2+ concentration was measured with a Siemens RapidLab 348 Ca2+/pH analyzer.

[7] = target: T1, PTHR2; experiment: Flow cytometry staining by VHH-Alexafluor647 of HEK293 cells expressing PTHR2; type: binding; conditions: 100 nM VHH
Procedure: Flow cytometry. Suspensions of cells in PBS were stained for 1 hour on ice in the presence of indicated concentrations of VHH probes functionalized with Alexafluor647. Cells were pelleted by centrifugation and washed with PBS prior to analysis by flow cytometry (BD Accuri C6). Gating was performed on forward scatter/side scatter profiles to analyze intact cells. Data was analyzed using FlowJo version 7.6. The median fluorescent intensity (MFI) of stained cells was used to generate VHH binding dose response curves (FIG. 20).

[8] = maximal cAMP response, normalized
[9] = mean ± SD, Inactive = response <5% of maximal

CC[C@H](C)[C@H](NC(=O)[C@H](CCC(=O)O)NC(=O)C(C)(C)NC(=O)[C@@H](NC(=O)[C@H](C)N)C(C)C)C(=O)N[C@@H](CCC(N)=O)C(=O)N[C@@H](CC(C)C)C(=O)N[C@@H](CCSC)C(=O)N[C@@H](Cc1c[nH]cn1)C(=O)N[C@@H](CCC(N)=O)C(=O)N[C@@H](CCCNC(=N)N)C(=O)N[C@@H](C)C(=O)N[C@@H](CCCCN)C(=O)N[C@@H](Cc1c[nH]c2ccccc12)C(=O)N[C@@H](CS)C(N)=O [PTH(1-14)] (H-AV[Aib]EIQLMHQRAKWC-NH2)
activation of human PTHR2 (in words) [1]: activated
Max (normalized ± SD), hPTHR2 [1, 8]: 1.14 ± 0.28
EC50 ([1]; mean ± SD, read-out: EC50, cAMP induction, hPTHR2): 924 ± 328 nM
Max (normalized ± SD), hPTHR16E [2, 8]: 1.06 ± 0.12
activation of wild-type human PTHR1 (in words) [3]: activated
Max (normalized ± SD), hPTHR1 [3, 8]: 1.01 ± 0.07
EC50 ([3]; mean ± SD, Inactive = response <5% of maximal response at that concentration, read-out: EC50, cAMP induction, hPTHR1): 4.3 ± 2 nM
Max (normalized ± SD), hPTHR1GFP [4, 8]: 1.09 ± 0.03
EC50 ([4]; mean ± SD, Inactive = response <5% of maximal, read-out: EC50, cAMP induction, hPTHR1GFP): 2.3 ± 1.2 nM
Max (normalized ± SD), hPTHR1YFPΔECD [5, 8]: 0.96 ± 0.04
EC50 ([5]; mean ± SD, Inactive = response <5% of maximal, read-out: EC50, cAMP induction, hPTHR1YFPΔECD): 1.1 ± 0.9 nM

M-PTH(1-14): UVUEIQLMHQXAKW (SEQ ID NO: 90) where U is Aib and X is homoarginine ([Aib]V[Aib]EIQLMHQ[hArg]AKW; not fully specified (C-terminus))
blood ionized calcium response [6]: little if any activity

TIP 39
activation of human PTHR2 (in words) [1]: activated

modified N-terminal PTH fragment with Aib3, amide; probably AV(Aib)EIQLMH (SEQ ID NO: 86) [PTH(1-9)]
EC50, cAMP induction, PTHR16E [2, 9]: Inactive at 10,000 nM
EC50, cAMP induction, hPTHR1 ([3]; mean ± SD, Inactive = response <5% of maximal response at that concentration): Inactive at 10,000 nM
EC50, cAMP induction, hPTHR1GFP [4, 9]: Inactive at 10,000 nM
activation of PTHR1 with ECD replaced by fluorescent protein (in words) [5]: inactive alone
EC50, cAMP induction, hPTHR1YFPΔECD [5, 9]: Inactive at 10,000 nM

B1: VHH05-PTH(1-34): PTH(1-34)-Cys conjugated to nanobody VHH05 (conjugate)
VHH: QVQLQESGGGLVQPGGSLRLSCAASGFVFENSAMAWYRQAPGKERELIAVIGTTFIKLAESVKGRFTISRDNAKSTVYLQMNNLKPEDTAVYYCSKSGAYWGQGTQVTVSS
peptide: SVSEIQLMHNLGKHLNSMERVEWLRKKLQDVHNFC
activation of wild-type human PTHR1 (in words) [3]: activates

B2: VHH6E: nanobody that recognizes a 14-mer peptide from UBC6e (…), SEQ ID NO: 71 (protein)
VHH: QVQLQESGGGLVQPGGSLRLSCAASGFVFENSAMAWYRQAPGKERELIAVIGTTFIKLAESVKGRFTISRDNAKSTVYLQMNNLKPEDTAVYYCSKSGAYWGQGTQVTVSSLPETGG
binding to PTHR2 (in words) [7]: lack of binding
